Patent US20040127405A1, “Methods for treating lung infections and lung tumors and for treating and preventing lung metastases” (priority 2000, published 2004)
Where two headings read alike, the source gives them in different places. Ends that are not written are not given here. * marks the point of attachment. S‑(2,3-bisacyloxypropyl) = S-(2,3-bisacyloxypropyl) group on the cysteine sulfur (lipopeptide), acyl preferably palmitoyl; X1 = S‑(2,3-bispalmitoyloxy-(2R)-propyl)Cys, CCCCCCCCCCCCCCCC(=O)OC[C@H](CSC[C@H](N)C(=O)*)OC(=O)CCCCCCCCCCCCCCC

How the values were obtained:
MADB106 tumor cells = test: Lung metastasis after intravenous MADB106 tumor cell inoculation in F344 rats; settings: intratracheal
lungs of rats = test: Leukocyte counts in bronchoalveolar lavage (BAL) after intratracheal instillation in rats; type: in vivo, rat
Procedure: In the majority of experiments, the biologically active, chemically synthesized 2-R-MALP-2 stereoisomer, corresponding to the natural compound, was used for intracheal administration. […] Both compounds were synthesized and purified as described in Example 1, and kept as 1 mg/ml stock solutions in a 33 vol. % 2-propanol, 67 vol. % water mixture. Stock solutions were diluted with pyrogen-free 0.9 wt. % sodium chloride solutions (Braun, Melsungen, Germany) shortly before application. Solvent controls consisted of corresponding mixtures without MALP-2.
Intratracheal administration of the compounds was performed under short ether anesthesia. During this process, rats were suspended in a hanging position by a rubber band fixed to the rats' upper jaw teeth. After intubation of the trachea via the oral cavity, a total volume of 500 μl was administered. Before administration, the correct position of the tube was checked by blowing air into the lung.
The animals' lungs were lavaged 10 times with 5 ml of cold 0.9 wt. % NaCl solutions via a tracheal cannula. The lavage fluid was pooled, and an average of >90% of the volume was recovered. The bronchoalveolar (BAL) cells were processed for blood leukocytes as described herein.
The total cell numbers in the lung compartments (BAL, marginal pool, and interstitium) and in the blood were determined in a Neubauer counting chamber. Differential cell counts were assessed on cytospins. The slides were fixed in acetone for 10 min and washed with Tris-buffered saline containing 0.1 wt. % Tween 20. Cells were stained with a monoclonal antibody cocktail against lymphocytes (R73 for T cells, O×12 for B cells, and 3.2.3 for natural killer cells [all cells available from Serotec, Oxford, United Kingdom]). At least 400 cells were differentiated on each slide. In addition, neutrophils and macrophages were morphologically identified by May-Grünwald and/or Giemsa staining.
For flow cytometry, cells were transferred into microtiter plates (10^6 cells/well) and washed twice in PBS containing 1% BSA and 0.1% NaN3. The staining was performed with the appropriate primary antibodies described below. After the cells were washed twice, the secondary antibody was incubated for 30 min at 4° C. The cells were analyzed by using a FACScan flow cytometer (Becton Dickinson, Mountain View, Calif.), focusing on the lymphocyte cluster. CD8^+ T cells were identified as R73^+ O×8^+; CD4^+ T cells were identified as R73^+ O×8^−; memory CD4^+ T cells were identified as O×22^− W3/25^high; naive T cells were identified as O×22^+ W3/25^high; and monocytes were identified as O×22^− W3/25^low. Dendritic cells were identified as low-autofluorescence cells, non-T and non-B lymphocytes, and double positive for O×6 and O×62 (Lambrecht et al., 1999. Am. J. Respir. Cell. Mol. Biol. 20:1165-1174). All primary antibodies were monoclonal mouse anti-rat (Serotec). Unconjugated antibodies were detected by using phycoerythrin-conjugated secondary antibody (KPE; Dianova, Hamburg, Germany) and biotinylated primary antibodies with Red 670-streptavidin (Gibco, Gaithersburg, Md.). Isotype-matched antibodies served as a control.
To investigate whether the lipopeptide MALP-2 would be able to exert effects in the lungs, 2.5 μg of the natural stereoisomer 2R-MALP-2 was instilled into the lungs of anesthetized rats. […] Taken together, only the natural 2R stereoisomer of MALP-2 specifically affected the cell counts and distribution of subsets in the BAL.
With respect to FIG. 2, the data are means±the standard error of the mean (SEM; n=six per group).
With respect to FIG. 3, rats were sacrificed at the indicated time points after instillation of 2.5 μg of 2R-MAPL-2, and leukocytes in the bronchoalveolar lavage (BAL) were determined as described. The data are means±the SEM (n=5 per group).
With respect to FIG. 4, data are means±the SEM (n=8 per group). […]

[1] = intraperitoneal injection of a few μg; cited from earlier work
[2] = test system: lymphatic tissue in the bronchial mucosa; test: Lymphatic tissue in the bronchial mucosa after repeated inhalation in rats; type: in vivo, rat; settings: inhalation by mask, 30 μg doses on six occasions at one-week intervals
Procedure: They were maintained under specific-pathogen-free conditions until administration of compounds in accordance with the invention.
With the aid of a mask, rats were made to inhale 30 μg doses of MALP-2 on six occasions at one-week intervals.

[3] = 3 μg instilled into the trachea
[4] = 2.5 μg intratracheal, three days, P<0.01, FIG. 2
[5] = three days after application, FIG. 4

MALP-2: macrophage-activating lipopeptide MALP-2 (an S-(2,3-bisacyloxypropyl)-cysteine peptide) isolated from Mycoplasma fermentans; stereochemistry not stated where tested (C(S‑(2,3-bisacyloxypropyl))GNNDESNISFKEK; not fully specified; also: acyl groups not given here, alternative: 2,3-diacylglyceryl-serinyl)
effects on lung colonization of tumor cells (MADB106 tumor cells; one day after tumor cell injection, FIG. 5B): no effects | reduction of lung metastasis compared with sham-injected animals (MADB106 tumor cells; simultaneously with tumor cell inoculation, counted 3 wk after inoculation, P=0.0006, FIG. 5A): 44% | effects on lung colonization of tumor cells (MADB106 tumor cells; three days after tumor cell injection, FIG. 5C): no effects | number of leukocytes in the respiratory tracts and the alveolar space (BAL) (lungs of rats; 3 μg instilled into the trachea, after a few hours, lasts for a few days, FIG. 1): increase in the number of leukocytes | adverse effect on the animals [3]: not detectable | food consumption, bodyweight, activity and behavior [3]: not noteworthy | food consumption, bodyweight, activity and behavior (inhalation, 30 μg doses on six occasions at one-week intervals): clinically not noteworthy | leukocyte infiltration [1]: brought about leukocyte infiltration | lymphatic tissue in the bronchial mucosa [2]: increase in the lymphatic tissue

S-[2,3-bispalmitoyloxy-(2R)-propyl]cysteinyl-GNNDESNISFKEK (X1-GNNDESNISFKEK) [2R-MALP-2]
time of maximal lymphocyte accumulation in the BAL (lungs of rats; 2.5 μg intratracheal): 72 h | lymphocyte numbers in the BAL (lungs of rats; 2.5 μg intratracheal, 24 h (0 h: [0.04±0.01]×10^6), mean±SEM): 0.6±0.1 ×10^6 | lymphocyte numbers in the BAL (lungs of rats; 2.5 μg intratracheal, 48 h, mean±SEM): 0.9±0.1 ×10^6 | lymphocyte numbers in the BAL (maximal accumulation) (lungs of rats; 2.5 μg intratracheal, 72 h after instillation, mean±SEM): 1.2±0.1 ×10^6 | all investigated cell types in the BAL (lungs of rats; 2.5 μg intratracheal, after 10 days): returned to control levels | increase of total cell number in the BAL (lungs of rats; 2.5 μg intratracheal, six hours after treatment, FIG. 3): about 10 -fold | total cell number in the BAL (lungs of rats; 2.5 μg intratracheal, three days after application, vs vehicle control, FIG. 2): clearly increased | alveolar macrophages (AM) in the BAL (lungs of rats; [4]): significant increase | lymphocytes in the BAL (lungs of rats; [4]): significant increase | neutrophils in the BAL (lungs of rats; [4]): significant increase | time of maximal cell count in the BAL (lungs of rats; 2.5 μg intratracheal, FIG. 3): 24 h | increase in B cells and monocytes in the BAL (lungs of rats; [5]): lower, but still significant | increase in T lymphocytes, NK cells and dendritic cells in the BAL (lungs of rats; [5]): highest relative increase | increase of leukocyte subpopulations in the BAL (flow cytometry) (lungs of rats; three days after application, P<0.01 vs control vehicle, FIG. 4): significant
